{"source": "paper PMC10290391", "about": "“Targeted degradation of ⍺-synuclein aggregates in Parkinson’s disease using the AUTOTAC technology” (Molecular Neurodegeneration, 2023)", "key": {"[1]": {"tested_on": "high molecular weight α-syn aggregates", "assay": "Dot blot / filter trap assay for α-syn aggregates in differentiated SH-SY5Y α-syn A53T cells", "type": "cell-based, human", "settings": "100 nM, 24 h; 450 nm filter", "experimental": "Differentiated SH-SY5Y α-syn A53T cells were treated with 2 μg/ml of a-syn PFFs, and after 24 h cells were treated with 100 nM of ATC161 for 24 h. The cells were lysed in RIPA buffer for 30 min on ice and then centrifuged at 13,000 rpm for 20 min at 4 ℃. The supernatants were aspirated and transferred into a new tube kept on ice. Protein concentration was determined by a BCA assay. The filter trap assay was performed with 5 μg of total protein diluted in 100 μL of lysate. A nitrocellulose membrane (pore size: 0.45 μm) was placed on the filter trap apparatus (96-well Bio-Dot®). Lysates were loaded and allowed to pass through the membrane under vacuum. Aggregated α-syn levels were determined by immunoblotting using an anti-α-syn aggregate antibody [MJFF-14–6-4–2] (1:2000; Abcam, ab209538)."}, "LAMP1+ lysosomes": {"tested_on": "LAMP1+ lysosomes", "assay": "Immunocytochemistry of LAMP1+ lysosomes in SH-SY5Y α-syn A53T cells transduced with PFFs", "type": "cell-based, human", "settings": "1 μM, 6 h, with Baf. A1", "experimental": "Cells were fixed with 4% paraformaldehyde (PFA) for 20 min at room temperature, followed by permeabilization with 0.1% Triton X-100 buffer for 15 min. The cells were blocked with 2% bovine serum albumin (BSA) in PBS for 1 h at room temperature. Then, the cells were incubated with primary antibodies diluted in the blocking buffer overnight at 4 °C. After washing with PBS, the slides were incubated with AlexaFluor-conjugated secondary antibodies for 1 h at room temperature. After mounting the slides with mounting solution containing DAPI, the images were captured on an LSM700 confocal microscopy (Carl Zeiss)."}, "p62 and α-syn aggregates": {"target": "T1, p62 and α-syn aggregates (Homo sapiens, UniProt P37840+Q13501)", "T1 construct": "Recombinant human α-syn (1–140) were obtained from NKMAX (SNA2001L); endogenous in cells; host or cells: HEK293A cells transduced with h-α-syn PFFs", "assay": "Proximity ligation assay (PLA) of p62 and α-syn in HEK293A cells", "type": "cell-based", "settings": "1 μM, 6 h", "experimental": "Proximity ligation assays were conducted using a PLA kit (Sigma-Aldrich) according to the manufacturer’s protocol. 293A Cells were seeded on coverslips and cultured for 24 h. After fixation with 4% PFA, the cells were permeabilized with 0.1% Triton X-100. The cells were incubated with antibodies for p62 (Abcam; ab56319) and alpha-synuclein aggregates (Abcam; ab209538) overnight at 4 °C. After washing with PLA washing buffer, the cells were hybridized, ligated and amplified by rolling circle. Coverslips were mounted on slides using mounting medium containing DAPI, and the images were captured by confocal microscopy (Zeiss)."}, "[2]": {"tested_on": "α-syn PFF-injected mouse model", "type": "in vivo", "settings": "10 mg/kg oral", "experimental": "Mice were anesthetized and perfused with PBS and 4% paraformaldehyde. Brains were sectioned at 30 μm thickness by vibratome (Leica). Free-floating sections were blocked with PBS containing 5% serum and 0.3% Triton X-100 for 1 h. The sections were then incubated with an anti-tyrosine hydroxylase (TH) antibody (1:5,000, Sigma, T1299) overnight at 4℃. The sections were incubated with biotinylated secondary antibody for 1 h at room temperature. The signal amplification was achieved by the ABC kit (Vector) followed by development with DAB (Vector). TH^+ optical density was measured in three brain sections per animal. Images of the ipsilateral and contralateral striatal area were obtained using an Axio scan Z1 slide scanner (Zeiss). Images were converted to grayscale via Image J, and the intensity was analyzed. Normalized values across the sections were used to compare the relative TH^+ optical density.\nIntrastriatal injection of α-syn fibrils was performed in C57BL6/J male mice at 8 weeks of age. 5 µg of α-syn fibrils were sonicated and injected into the dorsal striata in mice at the empirically derived coordinates: 1.0 mm anterior and 1.5 mm lateral to the Bregma, and 3.0 mm ventral relative to the skull in the course of 20 min. Scalp incisions were closed by suture. […]\nBrain sections were cut into 30 µm on a freezing microtome, and stored in tissue storage solution at -20 °C. Sections were washed with PBS and incubated with blocking buffer (2% normal goat serum, 1% BSA, 1% Triton X-100, and Tween-20 in PBS) for 1 h at room temperature. After washing with PBS, sections were incubated with primary antibodies (pS129-α-syn, GFAP) overnight at 4 °C, followed by secondary Goat anti-mouse AlexaFluor488 and Goat anti-rabbit AlexaFluor555 for 1 h at room temperature. Images were processed by Axio Scan Z1 (Carl Zeiss). In order to quantify the number of neurons in the PFF-injected striatum, the brain sections were stained with 0.1% crystal violet solution containing 0.1% acetic acid for 1 min at 50 ℃ and then rinsed in distilled water. Sections were dehydrated in 95% and 100% alcohol and mounted on slides.\nThe behavioral tests were performed according to IACUC approval (AUTOTAC Bio Inc., ATB-2107–06-1). The previously generated PFF-injected mouse model was used. For the forelimb grip strength test, a grip strength meter (Bioseb, BIO-GS3) was used. Three consecutive measurements were done for each mouse, and the average was calculated. For the motor coordination test, a rotarod (Bioseb, BX-ROD) was used. Each trial consisted of three attempts."}}}
{"smiles": "Fc1ccc(COc2cccc(CNCCOCCOCCNc3cccc(-c4cc(-c5ccc6c(c5)OCO6)n[nH]4)c3)c2)cc1", "note": "[ATC161, 3-(3-(benzo[d][1,3]dioxol-5-yl)-1H-pyrazol-5-yl)-N-(2-(2-(2-((3-((4-fluorobenzyl)oxy)benzyl)amino)ethoxy)ethoxy)ethyl)aniline]", "values": [{"measurement": "degradation of high molecular weight α-syn aggregates", "setting": "[1]", "result": "induced the degradation of high molecular weight α-syn aggregates"}, {"measurement": "increase in level of LAMP1+ lysosomes", "setting": "LAMP1+ lysosomes", "result": 2.9, "unit": "fold"}, {"measurement": "PLA+ signals of p62 with α-syn monomers", "setting": "p62 and α-syn aggregates; cells transduced with α-syn monomers", "result": "failed to induce PLA^+ signals"}, {"measurement": "interaction between p62 and α-syn aggregates (PLA puncta)", "setting": "p62 and α-syn aggregates; α-syn PFF-transduced cells", "result": "dramatically increased the number and sizes of PLA puncta"}, {"measurement": "neuronal cell death (Nissl staining, injection site)", "setting": "[2]", "result": "did not induce neuronal cell death"}, {"measurement": "increase in time on rotarod", "setting": "[2]; 5 times per week, 16 weeks", "result": 59, "unit": "%"}, {"measurement": "number of GFAP+ signals in striata near endopiriform nucleus", "setting": "[2]; 9 weeks (45 treatments)", "result": "reduced the number of GFAP^+ signals"}, {"measurement": "TH+ fiber level in ipsilateral striatum", "setting": "[2]; 16 weeks", "result": "reversed the TH^+ level to the extent of control group"}, {"measurement": "number of p-α-syn+ aggregates in the contralateral striata", "setting": "[2]; 16 weeks", "result": "attenuated the number of p-α-syn^+ aggregates"}, {"measurement": "peak grip force of fore- and hindlimbs", "setting": "[2]; 16 weeks", "result": "increased the peak grip force of fore- and hindlimbs to the extent of control group"}, {"measurement": "number of p-α-syn+ aggregates in the injection sites", "setting": "[2]; 16 weeks, vs vehicle", "result": "reduced the number of p-α-syn^+ aggregates"}]}
